According to US10654834B2 (Venenum Biodesign, LLC, priority 2016, dated 2020):
Like-named read-outs stand apart in the source and are kept apart here.

What was measured:
[1] = 6-week DEXA body composition analysis in DIO mice; assay type: in vivo, mouse; details: 6 weeks BID dosing
Excerpt: (§1) In the next series of studies (Examples 93-99), Male DIO mice were received at 12 weeks of age (from Taconic), and were single-housed at the testing facility and acclimated for at least 2 weeks. The mice were provided a high fat diet [Research Diet D12492 (60% Fat kcal)] while in the testing facility. Before the study initiation, the animals were randomized into 5 experimental groups by body weight. The vehicle group contained only 0.5% carboxymethylcellulose (medium viscosity)+0.25% Tween-80. The second group contained 10 mg/kg of the DPP-IV inhibitor Sitagliptin while the third group contained 30 mg/kg Compound 268. The fourth group contained the combination of 10 mg/kg Sitagliptin and 30 mg/kg Compound 268. The fifth group was the positive control for weight loss, Rimonabant. All mice were dosed BID at approximately 6:00 am and again at approximately 4:00 pm. The positive control rimonabant was administered at a dose of 10 mg/kg in the afternoon and the morning dosing was vehicle (no compound).
6-Week Dexa Analysis after Multiple Weeks of Dosing Compounds
Compounds of the present invention were dosed for multiple weeks and the mice were analyzed to determine whether weight loss seen in Example 93 was due to a loss in fat or lean mass.
In this example, the protocol from Example 93 was utilized. The day of experiment, the mice were anesthetized using 2.5% avertin [tert-amyl alcohol (Aldrich #15,256-3) and 2,2,2-tribromoethanol (Aldrich # T4, 840-2)]. Their body composition was assessed using the PIXImus2 X-ray unit (GE Lunar Corporation, Madison, Wis.) connected to a computer equipped with LUNAR PIXImus2 software. The head region of each mouse was excluded from the analysis. The following measurements were automatically measured or calculated by the PIXImus2 software: bone mineral density (BMD), bone mineral content (BMC), bone area (B Area), tissue area (T Area), percent fat, and total tissue mass (TTM). Fat mass, the percentage of lean mass, and lean mass, were calculated manually as follows: % Lean=100−% Fat Lean Mass=TTM×(100−% Fat) Fat Mass=TTM×% Fat

[2] = Bile weight in lean C57BL/6N mice after OGTT; assay type: in vivo, mouse; details: 30 mg/kg + sitagliptin 3 mg/kg p.o., 6 h, versus sitagliptin alone
Protocol: In addition, bile weight was determined in the OGTT study on lean mice described in Example 84 above. At the end of that study, bile was removed from the gallbladder and weighed to approximate volume of bile contained within the gallbladder.
FIG. 7 depicts bile weight in DIO mice at 6, 12, 18, and 24 hours after oral administration of 10 mg/kg sitagliptin alone or 10 mg/kg sitagliptin+30 mg/kg Compound 268. FIG. 8 depicts the comparison in bile weight between sitagliptin (3 mg/kg, p.o.) and Compound 268 (30 mg/kg, p.o.)+sitagliptin (3 mg/kg, p.o.) following an OGTT assay in lean C57BL/6N mice, 6 hours after treatment. FIG. 9 illustrates plasma GLP-1 levels from the DIO mice at the same time points.

blood glucose = experiment: OGTT and insulin measurements after 5 weeks of dosing in DIO mice; assay type: in vivo, mouse
Excerpt: as §1, with “compound). […]” for “compound).”
Compounds of the present invention were dosed for multiple weeks and were evaluated for their effectiveness in glycemic control. […] Insulin is also analyzed using Meso Scale Discovery according to the manufacturer's directions (item number K152BZC). Plasma samples ([…]) were loaded in duplicate onto the assay plate and measured against internal standards.

[3] = Portal vein versus systemic pharmacokinetics in hepatic portal vein cannulated CD(SD) rats; assay type: in vivo; details: male, rat, 10 mg/kg oral; for AUC(0-t): read-out: AUC (0→7 h)
Protocol: Low Level of Compounds is Attributed to Low Intestinal Absorption
In this study, we determined if low plasma level of the compounds of the present invention is due to low absorption in the gut, or due to the first pass effect (i.e., absorption followed by a rapid degradation of compounds by liver). Hepatic portal vein cannulated male CD(SD) rats obtained from Charles River Laboratory were utilized. In brief, Compound 268 was administered orally at 10 mg/kg, and the blood was obtained simultaneously from the portal vein and systemic circulation (retro-orbital sinus) at predose, 0.25, 0.5, 1, 2, and 4 hours post-dose, in EDTA coated tubes. The samples were processed into plasma and quantification of compound levels in the plasma was accomplished by means of LC-MS/MS analysis as described in Example 81.

[4] = Body weight over 6 weeks of BID dosing in DIO mice; assay type: in vivo, mouse; details: 30 mg/kg BID p.o.
Protocol: Monitoring of Weight Loss after Multiple Weeks of Dosing Compounds
Compounds of the present invention were dosed for multiple weeks and were evaluated for their ability to cause mice to lose weight.
as §1
Compounds of the present invention were evaluated for their ability to cause mice to lose weight. Mice were dosed compounds for 6 weeks and body weights were recorded twice a week.

[5] = Plasma concentration of compound in DIO mice over 24 hours; assay type: in vivo, mouse; details: 30 mg/kg p.o. + sitagliptin 10 mg/kg, 6, 12, 18, 24 h
Protocol: Plasma Concentration of Compound in Mice
In these studies, the plasma concentration of the compounds of the present invention was measured in DIO mice as well as lean C57BL/6N mice.
In the first study, (data represented in FIG. 10), plasma concentration levels were measured over a 24 hour time period in DIO mice. Following the treatment with the compound, the blood was collected via cardiac puncture at 6, 12, 18, and 24 hours. The blood samples (>250 μL) were placed in an EDTA K^2+ tube and plasma was processed for analytical chemistry and analyzed by LCMS/MS method as described in Example 81. FIG. 10 depicts the plasma concentrations of Compound 268 after oral administration at 30 mg/kg in combination with 10° mg/kg sitagliptin. The plasma concentrations of Compound 268 were below 10 nM at every tested time points.

[6] = plasma (portal vein blood), Portal Vein bleed
[7] = plasma (systemic blood), Peripheral bleed (retro-orbital sinus)

Cmax [3, 6]: 15.7 ± 6.7 ng/mL | Tmax [3, 6]: 15 to 60 min | AUC(0-t) [3, 6]: 49.1 ± 47.3 ng·h/mL | Cmax [3, 7]: 43.9 ± 50.2 ng/mL | Tmax [3, 7]: 15 to 60 min | AUC(0-t) [3, 7]: 76.2 ± 84.3 ng·h/mL | plasma concentration of compound [5]: below 10 nM
SMILES: N#Cc1ccc(CCNC(=O)[C@@H]2CCN2c2cc(N3CCC(CCNC(=O)NCCC(=O)O)CC3)nc(C(F)(F)F)n2)cc1 [Compound 268, (S)-3-(3-(2-(1-(6-(2-((4-cyanophenethyl)carbamoyl)azetidin-1-yl)-2-(trifluoromethyl)pyrimidin-4-yl)piperidin-4-yl)ethyl)ureido)propanoic acid]
fat mass versus lean mass (DEXA) [1]: due to a loss in the Fat Mass | loss in weight / total tissue mass (DEXA) [1]: about the same loss in weight | bile weight [2]: no significant differences in bile weight | glucose levels in OGTT after 5 weeks of dosing (blood glucose; 30 mg/kg + sitagliptin 10 mg/kg BID, versus vehicle): reduced the glucose levels relative to vehicle | insulin levels in OGTT after 5 weeks of dosing (blood glucose; BID dosing): increased the sensitivity of the mice to insulin | body weight change [4]: modest weight loss
